# According to patent US10471046B2, “Method for treating, preventing, or reducing the risk of skin infection” (Melinta Subsidiary Corp., priority 2014, dated 2019):
# Test system: S. aureus
# Assay: Minimum inhibitory concentrations (MICs) for S. aureus of exemplary compounds (Table 2)
# Format: cell-based
# Settings: Staphylococcus aureus, minimum inhibitory concentrations for S. aureus; read-out: MICs
# Method in brief: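 MICs (μg/mL) against S. aureus come from microtiter-tray dilution susceptibility testing per NCCLS M7-A5, comparing growth with and without compound.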
row,Structure (SMILES),MIC [µg/mL]
1,"CC(=O)NC[C@H]1CN(c2ccc(-c3ccc(CNC(=O)[C@H](N)Cc4cnc[nH]4)cc3)c(F)c2)C(=O)O1 [Compound 4292, N-{4′-[5-(S)-(Acetylamino-methyl)-2-oxo-oxazolidin-3-yl]-2′-fluoro-biphenyl-4-ylmethyl}-2-(R)-amino-3-(3H-imidazol-4-yl)-propionamide]",16
2,"CC(=O)NC[C@H]1CN(c2ccc(-c3ccc(C(=O)N[C@@H](Cc4cnc[nH]4)C(N)=O)cc3)c(F)c2)C(=O)O1 [Compound 4173, 4′-[5-(S)-(Acetylamino-methyl)-2-oxo-oxazolidin-3-yl]-2′-fluoro-biphenyl-4-carboxylic acid [1-carbamoyl-2-(S)-(3H-imidazol-4-yl)-ethyl]-amide]",32
3,"CC(=O)NC[C@H]1CN(c2ccc(-c3ccc(Cn4cccc4)nc3)c(F)c2)C(=O)O1 [Compound 1071, N-{3-[3-Fluoro-4-(6-pyrrol-1-ylmethyl-pyridin-3-yl)-phenyl]-2-oxo-oxazolidin-5-(S)-ylmethyl}-acetamide]",0.25
4,"CC(=O)NC[C@H]1CN(c2ccc(-c3ccc(/C=N/Nc4nccc(C(F)(F)F)n4)cc3)c(F)c2)C(=O)O1 [Compound 2042, N-(3-{2-Fluoro-4′-[(4-trifluoromethyl-pyrimidin-2-yl)-hydrazonomethyl]-biphenyl-4-yl}-2-oxo-oxazolidin-5-(S)-ylmethyl)-acetamide]",128
5,"CC(=O)NC[C@H]1CN(c2ccc(-c3ccc(CN4CC[C@H](N)C4)cc3)c(F)c2)C(=O)O1 [Compound 1092, N-{3-[4′-(3-(S)-Amino-pyrrolidin-1-ylmethyl)-2-fluoro-biphenyl-4-yl]-2-oxo-oxazolidin-5-(S)-ylmethyl}-acetamide]",4
6,"CCOC(=O)c1c(CNCc2ccc(-c3ccc(N4C[C@H](CNC(C)=O)OC4=O)cc3F)cc2)c(C)n(C2CC2)c1C [Compound 4157, 4-[({4′-[5-(S)-(Acetylamino-methyl)-2-oxo-oxazolidin-3-yl]-2′-fluoro-biphenyl-4-ylmethyl}-amino)-methyl]-1-cyclopropyl-2,5-dimethyl-1H-pyrrole-3-carboxylic acid ethyl ester]",8
7,"CC(=O)NC[C@H]1CN(c2ccc(-c3ccc(C(N)c4nn[nH]n4)cc3)c(F)c2)C(=O)O1 (mixture of isomers) [Compound 1040, N-(3-{4′-[Amino-(2H-tetrazol-5-(R/S)-yl)-methyl]-2-fluoro-biphenyl-4-yl}-2-oxo-oxazolidin-5-(S)-ylmethyl)-acetamide]",128
8,"CC(=O)NC[C@H]1CN(c2ccc(-c3ccc(C(=O)NCCc4cnc[nH]4)nc3)c(F)c2)C(=O)O1 [Compound 4223, 5-{4-[5-(S)-(Acetylamino-methyl)-2-oxo-oxazolidin-3-yl]-2-fluoro-phenyl}-pyridine-2-carboxylic acid [2-(3H-imidazol-4-yl)-ethyl]-amide]",2
9,"CCOC(=O)c1c[nH]c(SCCNCc2ccc(-c3ccc(N4C[C@H](CNC(C)=O)OC4=O)cc3F)cc2)n1 [Compound 5010, 2-[2-({4′-[5-(S)-(Acetylamino-methyl)-2-oxo-oxazolidin-3-yl]-2′-fluoro-biphenyl-4-ylmethyl}-amino)-ethylsulfanyl]-1H-imidazole-4-carboxylic acid ethyl ester]",4
10,"CC(=O)NC[C@H]1CN(c2ccc(-c3ccc(CNC(=O)[C@H](Cc4ccccn4)NC(=O)OC(C)(C)C)cc3)c(F)c2)C(=O)O1 [Compound 4303, [1-(S)-({4′-[5-(S)-(Acetylamino-methyl)-2-oxo-oxazolidin-3-yl]-2′-fluoro-biphenyl-4-ylmethyl}-carbamoyl)-2-pyridin-2-yl-ethyl]-carbamic acid tert-butyl ester]",8
11,"CC(=O)NC[C@H]1CN(c2ccc(-c3ccc(CN4CCOC4=O)cc3)c(F)c2)C(=O)O1 [Compound 1101, N-{3-[2-Fluoro-4′-(2-oxo-oxazolidin-3-ylmethyl)-biphenyl-4-yl]-2-oxo-oxazolidin-5-(S)-ylmethyl}-acetamide]",0.25
12,"CC(=O)NC[C@H]1CN(c2ccc(-c3ccc(CN4CC[C@@H](O)C4)cc3)c(F)c2)C(=O)O1 [Compound 1088, N-{3-[2-Fluoro-4′-(3-(R)-hydroxy-pyrrolidin-1-ylmethyl)-biphenyl-4-yl]-2-oxo-oxazolidin-5-(S)-ylmethyl}-acetamide]",4
13,"Cn1nnnc1SC[C@H]1CN(c2ccc(-c3ccc(CNCc4ccncc4)cc3)c(F)c2)C(=O)O1 [Compound 4231, 3-(2-Fluoro-4′-{[(pyridin-4-ylmethyl)-amino]-methyl}-biphenyl-4-yl)-5-(R)-(1-methyl-1H-tetrazol-5-ylsulfanylmethyl)-oxazolidin-2-one]",32

# More lines, now with the values ahead:
row,MIC [µg/mL],Structure (SMILES)
1,1,"CC(=O)NC[C@H]1CN(c2ccc(-c3ccc(CNCc4ccc(-c5ccccn5)s4)cc3)c(F)c2)C(=O)O1 [Compound 4119, N-[3-(2-Fluoro-4′-{[(5-pyridin-2-yl-thiophen-2-ylmethyl)-amino]-methyl}-biphenyl-4-yl)-2-oxo-oxazolidin-5-(S)-ylmethyl]-acetamide]"
2,8,"CC(=O)NC[C@H]1CN(c2ccc(-c3ccc(CN/C(=N\O)c4ccncc4)cc3)c(F)c2)C(=O)O1 [Compound 4285, N-[3-(2-Fluoro-4′-{[(N-hydroxy-pyridine-4-carboximidoyl)-amino]-methyl}-biphenyl-4-yl)-2-oxo-oxazolidin-5-(S)-ylmethyl]-acetamide]"
3,0.25,"CC(=O)NC[C@H]1CN(c2ccc(-c3ccc(C(=O)NCc4ccccn4)cc3)c(F)c2)C(=O)O1 [Compound 4110, 4′-[5-(S)-(Acetylamino-methyl)-2-oxo-oxazolidin-3-yl]-2′-fluoro-biphenyl-4-carboxylic acid (pyridin-2-ylmethyl)-amide]"
4,8,"CC(=O)NC[C@H]1CN(c2ccc(-c3ccc(CNC4CNC4)cc3)c(F)c2)C(=O)O1 (racemic) [Compound 2011, N-{3-[4′-(Azetidin-3-(R/S)-ylaminomethyl)-2-fluoro-biphenyl-4-yl]-2-oxo-oxazolidin-5-(S)-ylmethyl}-acetamide]"
5,1,"CC(=O)NC[C@H]1CN(c2ccc(-c3ccc(CNCc4ccco4)cc3)c(F)c2)C(=O)O1 [Compound 4026, N-[3-(2-Fluoro-4′-{[(furan-2-ylmethyl)-amino]-methyl}-biphenyl-4-yl)-2-oxo-oxazolidin-5-(S)-ylmethyl]-acetamide]"
6,2,"CC(=O)NC[C@H]1CN(c2ccc(-c3ccc(COCc4cc[n+]([O-])cc4)cc3)c(F)c2)C(=O)O1 [Compound 4198, N-{3-[2-Fluoro-4′-(1-oxy-pyridin-4-ylmethoxymethyl)-biphenyl-4-yl]-2-oxo-oxazolidin-5-(S)-ylmethyl}-acetamide]"
7,2,"CC(=O)NC[C@H]1CN(c2ccc(-c3ccc(CN(C)Cc4cccnc4)cc3)c(F)c2)C(=O)O1 [Compound 4047, N-(3-{2-Fluoro-4′-[(methyl-pyridin-3-ylmethyl-amino)-methyl]-biphenyl-4-yl}-2-oxo-oxazolidin-5-(S)-ylmethyl)-acetamide]"
8,128,"CC(=O)NC[C@H]1CN(c2ccc(-c3ccc(CS(=O)(=O)NCc4ccccc4)cc3)c(F)c2)C(=O)O1 [Compound 4170, N-{3-[4′-(Benzylsulfamoyl-methyl)-2-fluoro-biphenyl-4-yl]-2-oxo-oxazolidin-5-(S)-ylmethyl}-acetamide]"
9,2,"CC(=O)NC[C@H]1CN(c2ccc(-c3ccc(CNNC4=NCCN4)cc3)c(F)c2)C(=O)O1 [Compound 2049, N-(3-{4′-[N′-(4,5-Dihydro-1H-imidazol-2-yl)-hydrazinomethyl]-2-fluoro-biphenyl-4-yl}-2-oxo-oxazolidin-5-(S)-ylmethyl)-acetamide]"
10,8,"CC(=O)NC[C@H]1CN(c2ccc(-c3ccc(CNCc4ccc(N5CCOCC5)nc4)cc3)c(F)c2)C(=O)O1 [Compound 4118, N-[3-(2-Fluoro-4′-{[(6-morpholin-4-yl-pyridin-3-ylmethyl)-amino]-methyl}-biphenyl-4-yl)-2-oxo-oxazolidin-5-(S)-ylmethyl]-acetamide]"
11,0.5,"CC(=O)NC[C@H]1CN(c2ccc(-c3ccc(Cn4cccc4)cc3)c(F)c2)C(=O)O1 [Compound 1054, N-[3-(2-Fluoro-4′-pyrrol-1-ylmethyl-biphenyl-4-yl)-2-oxo-oxazolidin-5-(S)-ylmethyl]-acetamide]"
12,64,"CC(=O)NC[C@H]1CN(c2ccc(-c3ccc(CNCc4ccncc4)cn3)c(F)c2)C(=O)O1 [Compound 4052, N-{3-[3-Fluoro-4-(5-{[(pyridin-4-ylmethyl)-amino]-methyl}-pyridin-2-yl)-phenyl]-2-oxo-oxazolidin-5-(S)-ylmethyl}-acetamide]"
13,2,"COc1ncccc1CNCc1ccc(-c2ccc(N3C[C@H](CNC(C)=O)OC3=O)cc2F)cc1 [Compound 4151, N-[3-(2-Fluoro-4′-{[(2-methoxy-pyridin-3-ylmethyl)-amino]-methyl}-biphenyl-4-yl)-2-oxo-oxazolidin-5-(S)-ylmethyl]-acetamide]"
14,2,"CC(=O)NC[C@H]1CN(c2ccc(-c3ccc(CNC(=O)/C=C/c4cccn(C)c4=O)cc3)c(F)c2)C(=O)O1 [Compound 4194, N-{4′-[5-(S)-(Acetylamino-methyl)-2-oxo-oxazolidin-3-yl]-2′-fluoro-biphenyl-4-ylmethyl}-3-(1-methyl-2-oxo-1,2-dihydro-pyridin-3-yl)-acrylamide]"
15,2,"CC(=O)NC[C@H]1CN(c2ccc(-c3ccc(CNCc4ccc(N(C)C)cc4)cc3)c(F)c2)C(=O)O1 [Compound 4062, N-(3-{4′-[(4-Dimethylamino-benzylamino)-methyl]-2-fluoro-biphenyl-4-yl}-2-oxo-oxazolidin-5-(S)-ylmethyl)-acetamide]"
16,2,"CC(=O)NC[C@H]1CN(c2ccc(-c3ccc(CNCc4ccc(-c5cccc(S(N)(=O)=O)c5)o4)cc3)c(F)c2)C(=O)O1 [Compound 4158, N-{3-[2-Fluoro-4′-({[5-(3-sulfamoyl-phenyl)-furan-2-ylmethyl]-amino}-methyl)-biphenyl-4-yl]-2-oxo-oxazolidin-5-(S)-ylmethyl}-acetamide]"
